Assay results: the supplement of paper PMC10307832

Experiments:
Assay in all cases: relative viability (nuclei count vs DMSO), 5 days (fraction); higher = more cells survive
[1] = system: 201T
Summary of the method: (§1)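 Relative viability equals treated-well nuclei counts divided by vehicle-well nuclei counts. Counts came from 4× images of lung cancer cell lines grown in 1536-well plates for 5 days after pin-tool dosing on the day after seeding. Dosing used one drug alone or a fixed anchor-drug dose plus five library-drug doses (not always all listed) in √10 steps, and values are medians of duplicate plates.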

[2] = system: ChaGo-K-1
Summary of the method: as §1

[3] = system: HCC-78
Summary of the method: as §1

[4] = system: HCC-827
Summary of the method: as §1

[5] = system: LCLC-103H
Summary of the method: as §1

[6] = system: LCLC-97TM1
Summary of the method: as §1

[7] = system: LOU-NH91
Summary of the method: as §1

[8] = system: NCI-H1437
Summary of the method: as §1

[9] = system: NCI-H1755
Summary of the method: as §1

[10] = system: NCI-H2023
Summary of the method: as §1

[11] = system: NCI-H2085
Summary of the method: as §1

[12] = system: NCI-H2126
Summary of the method: as §1

[13] = system: NCI-H2170
Summary of the method: as §1

[14] = system: NCI-H2342
Summary of the method: as §1

[15] = system: NCI-H2405
Summary of the method: as §1

[16] = system: NCI-H441
Summary of the method: as §1

[17] = system: NCI-H596
Summary of the method: as §1

[18] = system: NCI-H650
Summary of the method: as §1

[19] = system: NCI-H727
Summary of the method: as §1

[20] = system: RERF-LC-KJ
Summary of the method: as §1

[21] = system: SK-MES-1
Summary of the method: as §1

For `COCC1(CO)C(=O)C2CCN1CC2` (configuration not stated) [PRIMA-1MET] + COc1cc2c(Oc3ccc(NC(=O)C4(C(=O)Nc5ccc(F)cc5)CC4)cc3F)ccnc2cc1OCCCN1CCOCC1 [Foretinib] (partner 0.25 µM), the relative viability ([1]; first compound 0.2 µM) was 1.33, the relative viability ([1]; first compound 0.6325 µM) was 1.09 and the relative viability ([1]; first compound 2 µM) was 0.97. It also gave a relative viability ([1]; first compound 6.325 µM) of 1.15, a relative viability ([1]; first compound 20 µM) of 1.08 and a relative viability ([2]; first compound 0.2 µM) of 1.03. It also gave a relative viability ([2]; first compound 0.6325 µM) of 0.838, a relative viability ([2]; first compound 2 µM) of 0.911 and a relative viability ([2]; first compound 6.325 µM) of 1.01. The relative viability ([2]; first compound 20 µM) was 0.859, the relative viability ([3]; first compound 0.2 µM) was 0.671 and the relative viability ([3]; first compound 0.6325 µM) was 0.477. The relative viability ([3]; first compound 6.325 µM) was 0.54, the relative viability ([3]; first compound 20 µM) was 0.441 and the relative viability ([4]; first compound 0.2 µM) was 1.09. It also gave a relative viability ([4]; first compound 0.6325 µM) of 0.976, a relative viability ([4]; first compound 2 µM) of 0.749 and a relative viability ([4]; first compound 6.325 µM) of 1.01. For the same compound, the relative viability ([4]; first compound 20 µM) was 0.929, the relative viability ([5]; first compound 0.2 µM) was 0.915 and the relative viability ([5]; first compound 0.6325 µM) was 0.718. For the same compound, the relative viability ([5]; first compound 2 µM) was 0.698, the relative viability ([5]; first compound 6.325 µM) was 0.726 and the relative viability ([5]; first compound 20 µM) was 0.189. For the same compound, the relative viability ([6]; first compound 0.2 µM) was 0.915, the relative viability ([6]; first compound 0.6325 µM) was 0.909 and the relative viability ([6]; first compound 2 µM) was 0.926. The relative viability ([6]; first compound 6.325 µM) was 0.945, the relative viability ([6]; first compound 20 µM) was 0.826 and the relative viability ([7]; first compound 0.2 µM) was 1.04. For the same compound, the relative viability ([7]; first compound 0.6325 µM) was 0.992, the relative viability ([7]; first compound 2 µM) was 0.861 and the relative viability ([7]; first compound 6.325 µM) was 1. It also gave a relative viability ([7]; first compound 20 µM) of 0.8, a relative viability ([8]; first compound 0.2 µM) of 1.32 and a relative viability ([8]; first compound 0.6325 µM) of 1.21. The relative viability ([8]; first compound 2 µM) was 1.24, the relative viability ([8]; first compound 6.325 µM) was 1.21 and the relative viability ([8]; first compound 20 µM) was 1.17. The relative viability ([9]; first compound 0.2 µM) was 1.02, the relative viability ([9]; first compound 0.6325 µM) was 0.932 and the relative viability ([9]; first compound 2 µM) was 0.809. It also gave a relative viability ([9]; first compound 6.325 µM) of 0.907, a relative viability ([9]; first compound 20 µM) of 0.867 and a relative viability ([10]; first compound 0.2 µM) of 1.03. For the same compound, the relative viability ([10]; first compound 0.6325 µM) was 0.781, the relative viability ([10]; first compound 2 µM) was 0.827 and the relative viability ([10]; first compound 6.325 µM) was 0.915. For the same compound, the relative viability ([10]; first compound 20 µM) was 0.813, the relative viability ([11]; first compound 0.2 µM) was 1.01 and the relative viability ([11]; first compound 0.6325 µM) was 1.01. It also gave a relative viability ([11]; first compound 2 µM) of 0.772, a relative viability ([11]; first compound 6.325 µM) of 0.53 and a relative viability ([11]; first compound 20 µM) of 0.122. It also gave a relative viability ([12]; first compound 0.2 µM) of 1.3, a relative viability ([12]; first compound 0.6325 µM) of 0.993 and a relative viability ([12]; first compound 2 µM) of 1.22. The relative viability ([12]; first compound 6.325 µM) was 1.23, the relative viability ([12]; first compound 20 µM) was 1.13 and the relative viability ([13]; first compound 0.2 µM) was 1.04. It also gave a relative viability ([13]; first compound 0.6325 µM) of 0.921, a relative viability ([13]; first compound 2 µM) of 0.945 and a relative viability ([13]; first compound 6.325 µM) of 1.01. The relative viability ([13]; first compound 20 µM) was 0.94, the relative viability ([14]; first compound 0.2 µM) was 1.06 and the relative viability ([14]; first compound 0.6325 µM) was 0.986. For the same compound, the relative viability ([14]; first compound 2 µM) was 0.887, the relative viability ([14]; first compound 6.325 µM) was 1.01 and the relative viability ([14]; first compound 20 µM) was 0.99. It also gave a relative viability ([15]; first compound 0.2 µM) of 1.03, a relative viability ([15]; first compound 0.6325 µM) of 1.03 and a relative viability ([15]; first compound 6.325 µM) of 1.03. The relative viability ([15]; first compound 20 µM) was 0.506, the relative viability ([16]; first compound 0.2 µM) was 0.954 and the relative viability ([16]; first compound 0.6325 µM) was 0.908. For the same compound, the relative viability ([16]; first compound 2 µM) was 0.988, the relative viability ([16]; first compound 6.325 µM) was 1 and the relative viability ([16]; first compound 20 µM) was 0.496. For the same compound, the relative viability ([17]; first compound 0.2 µM) was 0.91, the relative viability ([17]; first compound 0.6325 µM) was 0.924 and the relative viability ([17]; first compound 2 µM) was 0.697. For the same compound, the relative viability ([17]; first compound 6.325 µM) was 0.318, the relative viability ([17]; first compound 20 µM) was 0.0971 and the relative viability ([18]; first compound 0.2 µM) was 1.34. The relative viability ([18]; first compound 2 µM) was 0.917, the relative viability ([18]; first compound 6.325 µM) was 1.1 and the relative viability ([18]; first compound 20 µM) was 0.644. It also gave a relative viability ([19]; first compound 0.2 µM) of 0.636, a relative viability ([19]; first compound 0.6325 µM) of 0.674 and a relative viability ([19]; first compound 2 µM) of 0.782. It also gave a relative viability ([19]; first compound 6.325 µM) of 1.03, a relative viability ([19]; first compound 20 µM) of 0.44 and a relative viability ([20]; first compound 0.2 µM) of 0.872. For the same compound, the relative viability ([20]; first compound 0.6325 µM) was 0.878, the relative viability ([20]; first compound 2 µM) was 0.922 and the relative viability ([20]; first compound 6.325 µM) was 0.957. For the same compound, the relative viability ([20]; first compound 20 µM) was 0.819, the relative viability ([21]; first compound 0.2 µM) was 1.11 and the relative viability ([21]; first compound 0.6325 µM) was 0.941. The relative viability ([21]; first compound 2 µM) was 0.795, the relative viability ([21]; first compound 6.325 µM) was 1.15 and the relative viability ([21]; first compound 20 µM) was 0.955.
